Measured values taken from the NIST ThermoML archive (doi:10.1016/j.fluid.2004.12.005).
Where “and” joins values, the source holds several entries; their conditions need not be identical. Equal entries are not always repeated.

Tests used:
[1] = Solid-liquid equilibrium temperature; details: 100 kPa; Crystal; visual observation
[2] = activity coefficient (dimensionless); of the first substance listed, at infinite dilution; xn = mol fraction of the nth substance listed; details: Liquid, Chromatography, x1 = 0
[3] = excess molar enthalpy (molar enthalpy of mixing); xn = mol fraction of the nth substance listed; details: Liquid, Flow calorimetry

Cc1ccc(C)cc1 [1,4-dimethylbenzene]
Details	Solid-liquid equilibrium temperature [K]
[1]	286.45

CC(=O)OC(C)C [1-methylethyl ethanoate] + CCCCCCCCCC
[2]
Details	activity coefficient
303.16 K	2.56
313.14 K	2.48
323.17 K	2.41
333.16 K	2.36

CC(=O)OC(C)C [1-methylethyl ethanoate] + CCCCCCCCCCCC
[2]
Details	activity coefficient
303.16 K	2.82
313.17 K	2.66
323.2 K	2.52
333.16 K	2.42

c1ccccc1 [benzene]
Details	Solid-liquid equilibrium temperature [K]
[1]	278.94

CCCCCCCCCC [decane] + CCOC(C)=O
[3]
Details	excess molar enthalpy [kcal/mol]
363.15 K, 1397 kPa, x2 = 0.0952	0.112
363.15 K, 1397 kPa, x2 = 0.1817	0.198
363.15 K, 1397 kPa, x2 = 0.2607	0.261
363.15 K, 1397 kPa, x2 = 0.3332	0.304
363.15 K, 1397 kPa, x2 = 0.3998	0.333
363.15 K, 1397 kPa, x2 = 0.4614	0.349
363.15 K, 1397 kPa, x2 = 0.5183	0.356
363.15 K, 1397 kPa, x2 = 0.5712	0.355
363.15 K, 1397 kPa, x2 = 0.6205	0.347
363.15 K, 1397 kPa, x2 = 0.6665	0.335
363.15 K, 1397 kPa, x2 = 0.7095	0.316
363.15 K, 1397 kPa, x2 = 0.7499	0.292
363.15 K, 1397 kPa, x2 = 0.7878	0.266
363.15 K, 1397 kPa, x2 = 0.8234	0.236
363.15 K, 1397 kPa, x2 = 0.8571	0.202
363.15 K, 1397 kPa, x2 = 0.8888	0.167
363.15 K, 1397 kPa, x2 = 0.9189	0.129
363.15 K, 1397 kPa, x2 = 0.9473	0.0868
363.15 K, 1397 kPa, x2 = 0.9743	0.0437
413.15 K, 1342 kPa, x2 = 0.0952	0.116
413.15 K, 1342 kPa, x2 = 0.1817	0.204
413.15 K, 1342 kPa, x2 = 0.2607	0.268
413.15 K, 1342 kPa, x2 = 0.3332	0.314
413.15 K, 1342 kPa, x2 = 0.3998	0.346
413.15 K, 1342 kPa, x2 = 0.4614	0.363
413.15 K, 1342 kPa, x2 = 0.5183	0.371
413.15 K, 1342 kPa, x2 = 0.5713	0.372
413.15 K, 1342 kPa, x2 = 0.6205	0.363
413.15 K, 1342 kPa, x2 = 0.6665	0.351
413.15 K, 1342 kPa, x2 = 0.7095	0.329
413.15 K, 1342 kPa, x2 = 0.7499	0.306
413.15 K, 1342 kPa, x2 = 0.7878	0.277
413.15 K, 1342 kPa, x2 = 0.8234	0.244
413.15 K, 1342 kPa, x2 = 0.8571	0.209
413.15 K, 1342 kPa, x2 = 0.8888	0.171
413.15 K, 1342 kPa, x2 = 0.9189	0.131
413.15 K, 1342 kPa, x2 = 0.9473	0.0884
413.15 K, 1342 kPa, x2 = 0.9743	0.0466

CCOC(C)=O [ethyl acetate] + CCCCCC
[3]
Details	excess molar enthalpy [kcal/mol]
363.15 K, 1583 kPa, x2 = 0.0377	0.042
363.15 K, 1583 kPa, x2 = 0.0764	0.0851
363.15 K, 1583 kPa, x2 = 0.1162	0.128
363.15 K, 1583 kPa, x2 = 0.157	0.164
363.15 K, 1583 kPa, x2 = 0.1989	0.196
363.15 K, 1583 kPa, x2 = 0.242	0.228
363.15 K, 1583 kPa, x2 = 0.2862	0.254
363.15 K, 1583 kPa, x2 = 0.3318	0.275
363.15 K, 1583 kPa, x2 = 0.3786	0.292
363.15 K, 1583 kPa, x2 = 0.4269	0.305
363.15 K, 1583 kPa, x2 = 0.4765	0.309
363.15 K, 1583 kPa, x2 = 0.5277	0.31
363.15 K, 1583 kPa, x2 = 0.5804	0.304
363.15 K, 1583 kPa, x2 = 0.6347	0.291
363.15 K, 1583 kPa, x2 = 0.6908	0.267
363.15 K, 1583 kPa, x2 = 0.7487	0.237
363.15 K, 1583 kPa, x2 = 0.8084	0.197
363.15 K, 1583 kPa, x2 = 0.8702	0.146
363.15 K, 1583 kPa, x2 = 0.934	0.0799
413.15 K, 1376 kPa, x2 = 0.0377	0.0453
413.15 K, 1376 kPa, x2 = 0.0765	0.0863
413.15 K, 1376 kPa, x2 = 0.1162	0.126
413.15 K, 1376 kPa, x2 = 0.1571	0.162
413.15 K, 1376 kPa, x2 = 0.199	0.195
413.15 K, 1376 kPa, x2 = 0.2421	0.224
413.15 K, 1376 kPa, x2 = 0.2864	0.251
413.15 K, 1376 kPa, x2 = 0.332	0.271
413.15 K, 1376 kPa, x2 = 0.3788	0.288
413.15 K, 1376 kPa, x2 = 0.427	0.301
413.15 K, 1376 kPa, x2 = 0.4767	0.305
413.15 K, 1376 kPa, x2 = 0.5279	0.306
413.15 K, 1376 kPa, x2 = 0.5806	0.3
413.15 K, 1376 kPa, x2 = 0.6349	0.288
413.15 K, 1376 kPa, x2 = 0.691	0.266
413.15 K, 1376 kPa, x2 = 0.7488	0.236
413.15 K, 1376 kPa, x2 = 0.8086	0.196
413.15 K, 1376 kPa, x2 = 0.8703	0.144
413.15 K, 1376 kPa, x2 = 0.934	0.0788

CCOC(C)=O [ethyl acetate] + CCCCCCCCCC
[2]
Details	activity coefficient
303.16 K	3.07
313.14 K	2.95
323.17 K	2.84
333.16 K	2.75

CCOC(C)=O [ethyl acetate] + CCCCCCCCCCCC
[2]
Details	activity coefficient
303.16 K	3.25
313.17 K	3.05
323.2 K	2.88
333.16 K	2.71

CCCCCCCCCCCCCC(=O)OCC [ethyl tetradecanoate]
Details	Solid-liquid equilibrium temperature
[1]	286.33 K and 286.36 K

COC(C)=O [methyl ethanoate] + CCCCCC
[3]
Details	excess molar enthalpy [kcal/mol]
363.15 K, 1617 kPa, x1 = 0.0801	0.119
363.15 K, 1617 kPa, x1 = 0.1552	0.211
363.15 K, 1617 kPa, x1 = 0.2259	0.28
363.15 K, 1617 kPa, x1 = 0.2925	0.331
363.15 K, 1617 kPa, x1 = 0.3554	0.365
363.15 K, 1617 kPa, x1 = 0.4148	0.386
363.15 K, 1617 kPa, x1 = 0.471	0.397
363.15 K, 1617 kPa, x1 = 0.5244	0.398
363.15 K, 1617 kPa, x1 = 0.575	0.392
363.15 K, 1617 kPa, x1 = 0.6232	0.382
363.15 K, 1617 kPa, x1 = 0.669	0.361
363.15 K, 1617 kPa, x1 = 0.7127	0.337
363.15 K, 1617 kPa, x1 = 0.7544	0.308
363.15 K, 1617 kPa, x1 = 0.7942	0.274
363.15 K, 1617 kPa, x1 = 0.8322	0.237
363.15 K, 1617 kPa, x1 = 0.8687	0.196
363.15 K, 1617 kPa, x1 = 0.9036	0.151
363.15 K, 1617 kPa, x1 = 0.937	0.103
363.15 K, 1617 kPa, x1 = 0.9692	0.0525
413.15 K, 1376 kPa, x1 = 0.0801	0.119
413.15 K, 1376 kPa, x1 = 0.1552	0.215
413.15 K, 1376 kPa, x1 = 0.2259	0.287
413.15 K, 1376 kPa, x1 = 0.2925	0.34
413.15 K, 1376 kPa, x1 = 0.3553	0.377
413.15 K, 1376 kPa, x1 = 0.4148	0.401
413.15 K, 1376 kPa, x1 = 0.471	0.413
413.15 K, 1376 kPa, x1 = 0.5244	0.415
413.15 K, 1376 kPa, x1 = 0.575	0.41
413.15 K, 1376 kPa, x1 = 0.6232	0.399
413.15 K, 1376 kPa, x1 = 0.669	0.379
413.15 K, 1376 kPa, x1 = 0.7127	0.354
413.15 K, 1376 kPa, x1 = 0.7544	0.321
413.15 K, 1376 kPa, x1 = 0.7942	0.286
413.15 K, 1376 kPa, x1 = 0.8322	0.246
413.15 K, 1376 kPa, x1 = 0.8687	0.203
413.15 K, 1376 kPa, x1 = 0.9036	0.155
413.15 K, 1376 kPa, x1 = 0.937	0.107
413.15 K, 1376 kPa, x1 = 0.9692	0.0543

COC(C)=O [methyl ethanoate] + CCCCCCCCCC
[3]
Details	excess molar enthalpy [kcal/mol]
363.15 K, 1582 kPa, x1 = 0.1148	0.164
363.15 K, 1582 kPa, x1 = 0.2149	0.282
363.15 K, 1582 kPa, x1 = 0.303	0.361
363.15 K, 1582 kPa, x1 = 0.3811	0.413
363.15 K, 1582 kPa, x1 = 0.4509	0.442
363.15 K, 1582 kPa, x1 = 0.5135	0.455
363.15 K, 1582 kPa, x1 = 0.5701	0.458
363.15 K, 1582 kPa, x1 = 0.6215	0.45
363.15 K, 1582 kPa, x1 = 0.6684	0.434
363.15 K, 1582 kPa, x1 = 0.7112	0.415
363.15 K, 1582 kPa, x1 = 0.7507	0.387
363.15 K, 1582 kPa, x1 = 0.787	0.356
363.15 K, 1582 kPa, x1 = 0.8206	0.321
363.15 K, 1582 kPa, x1 = 0.8518	0.283
363.15 K, 1582 kPa, x1 = 0.8808	0.242
363.15 K, 1582 kPa, x1 = 0.9079	0.199
363.15 K, 1582 kPa, x1 = 0.9331	0.152
363.15 K, 1582 kPa, x1 = 0.9568	0.103
363.15 K, 1582 kPa, x1 = 0.9791	0.0532
413.15 K, 1376 kPa, x1 = 0.1148	0.153
413.15 K, 1376 kPa, x1 = 0.2149	0.261
413.15 K, 1376 kPa, x1 = 0.303	0.335
413.15 K, 1376 kPa, x1 = 0.3811	0.385
413.15 K, 1376 kPa, x1 = 0.4509	0.416
413.15 K, 1376 kPa, x1 = 0.5136	0.431
413.15 K, 1376 kPa, x1 = 0.5702	0.434
413.15 K, 1376 kPa, x1 = 0.6215	0.427
413.15 K, 1376 kPa, x1 = 0.6684	0.413
413.15 K, 1376 kPa, x1 = 0.7113	0.396
413.15 K, 1376 kPa, x1 = 0.7507	0.37
413.15 K, 1376 kPa, x1 = 0.787	0.341
413.15 K, 1376 kPa, x1 = 0.8206	0.308
413.15 K, 1376 kPa, x1 = 0.8518	0.271
413.15 K, 1376 kPa, x1 = 0.8808	0.232
413.15 K, 1376 kPa, x1 = 0.9079	0.19
413.15 K, 1376 kPa, x1 = 0.9332	0.145
413.15 K, 1376 kPa, x1 = 0.9568	0.0981
413.15 K, 1376 kPa, x1 = 0.9791	0.0501
